# From patent US7381731B2, “Pharmaceutical composition comprising citrulline” (Angiogenix, Inc., priority 1994, dated 2008)
# What was measured:
# [1] = tested on: cultured bovine aortic EC; experiment: DOX as NOS agonist: NO production by oxyhemoglobin/methemoglobin conversion and NO sensitive electrode; format: cell-based
# Description: In fact, a wide variety of vasoactive agents (e.g., bradykinin, muscarinic agonists and growth factors) which increase tPA levels are also agonists of nitric oxide synthase (NOS). DOX activity as a NOS agonist was investigated in cultured bovine aortic EC using two methods to assess NO production: conversion of oxyhemoglobin to methamoglobin and a NO sensitive electrode.
# For all experiments described herein, human coronary artery endothelial cells (passage 3-5-Clonetics) were maintained at 37°, […] and 5% CO2 in Medium 199 (M199) supplemented with 5% fetal bovine serum (FBS, Hyclone), 10% iron supplemented FBS (Hyclone), thymidine ([…]), penicillin G (100 U mL^−1) and streptomycin (100 μmL^−1). […] Acetylcholine, an eNOS agonist, was used in all experiments as the positive control at concentrations of 10^−7 and 10^−6 M.
# Nitric Oxide Measurements. Methemoglobin—The effect of DOX on NO production in EC was determined using a photometric assay for conversion of oxyhemoglobin to methemoglobin. […] Perfusate is then directed into a flow-through cuvette in a dual wavelength spectrophotometer and change in absorbency (415/405 nm) is measured. Experimental stimulation was carried out by 3 min infusion periods of DOX added to buffer perfusion to yield final concentrations of 10^−7 and 10^−6 M. For analysis, we determined the area under the curve for the change in absorbency response/min caused by DOX assuming a one to one correspondence for NO and metHb production, the known stoichiometric balance for this reaction. NO production was measured with a NO meter connected to a polargraphic NO electrode as previously described. The NO sensor probe will be inserted vertically into 24-well plates containing confluent EC such that the tip of the electrode is submerged 2 mm under the surface of medium (above −1 ml). The reaction was initiated when desired concentrations of DOX are added to the well. Calibrations were performed with S-nitroso-acetyl-penicillamine.
# [2] = tested on: bovine aortic endothelial cells (BAEC); experiment: Superoxide anion (O2*—) formation in BAEC; format: cell-based; details: for increase of O2*— production above basal levels: 1 μM; for increase of O2*— production above basal levels / prevention of basal production of O2*—: 60 minute period; for inhibition of O2*— production induced by A-23187: A-23187 1 μM; for inhibition of O2*— production induced by A-23187 / reduction of O2*— induced by SP: concurrent treatment 5×10^−4M; for reduction of O2*— induced by SP: SP 1 μM; for prevention of basal production of O2*—: supplementation 5×10^−4M
# Description: Cellular superoxide anion formation—Effect of NOS agonists on cellular superoxide anion formation.
# [3] = tested on: bovine aortic endothelial cells (BAEC); experiment: NO production by endothelial cells on beads, photometric oxyhemoglobin to methemoglobin assay; format: cell-based
# Description: NO oxidize; oxyhemoglobin (HbO2) to methemoglobin (metHb) in the following reaction HbO2+NO−metHb+NO3. The amount of NO produced by endothelial cells was quantified by measuring the change in absorbance as HbO2 oxidizes to metHb. Oxyhemoglobin has a absorbance peak at 415 nm, while methb has a 406 nm absorbance peak. By subtracting the absorbance of metHb from HbO2, the concentration of NO can be assessed. The general method was patterned after that of Feelisch et al., (Biochem. and Biophy. Res. Comm. 1991; 180, Nc I:286-293).
# The effects of pravastatin on activity of endothelial cells in producing NO were compared with those of actetylcholine, which is known to specifically stimulate NO production by NOS activity.
# y^+ transporter = experiment: y+ transport of [3H]-LA in cells exposed to NOS agonists or NO donors, sodium-free uptake buffer; format: cell-based, bovine; details: for maximum inhibition of y+ transport: FIG. 16; for inhibition of L-arginine transport: data not shown; for increase of [3H]-LA uptake: Ach 5 μM; for increase of y+ transport of L-arginine / increase of y+ transporter activity from control: SP 1 μM
# Description: Effect of NOS agonists on cellular uptake of LA.
# Effect of NO donors on cellular uptake of LA.
# In order to confirm whether the reduction in cellular uptake of [^3H]-LA was due to NO released from SNAP, experiments were performed using another NO donor, DPTA-NONOate. Unlike SNAP, which donates large amounts of NO over a short time period (t1/2˜10 minutes), the use of DPTA-NONOate allows for a slower (t1/2˜5 hours), more sustained release of NO that is constant over time.
compound,measurement,setting,value
"COc1cc2nc(N3CCN(C(=O)C4COc5ccccc5O4)CC3)nc(N)c2cc1OC (centres unmarked) [DOX, Doxazosin]",increase in NO production,"[1]; DOX 10^−7-10^−5 M, dose-related",64-145%
CNc1ccc2oc(C[C@H]3O[C@@]4(CC[C@H]3C)O[C@H]([C@H](C)C(=O)c3ccc[nH]3)[C@H](C)C[C@H]4C)nc2c1C(=O)O [A-23187],increase of O2*— production above basal levels,[2],2.5 fold
"COC(=O)[C@@H](N)CCCNC(=N)N[N+](=O)[O-] [L-NAME, n-ω-nitro-L-arginine methyl ester]",block of increase in NO to ACH,"[1]; ACH 10^−6 M, prior L-NAME",86%
same,block of increase in NO to DOX,"[1]; DOX 10^−6 M, prior L-NAME 5×10^−4 M",72%
same,inhibition of O2*— production induced by A-23187,[2],58%
same,reduction of O2*— induced by SP,[2],81%
same,prevention of basal production of O2*—,[2],100%
same,reduction of acetylcholine-induced production of NO,[3]; buffer containing L-NAME 10^−3 M,80%
same,NO production in response to pravastatin,[3]; superfusion with L-NAME 10^−3 M,blunted
"NCCCN(CCCN)/[N+]([O-])=N/O [DPTA-NONOate, dipropylenetriamine NONOate]",maximum inhibition of y+ transport,"y^+ transporter; 0.01 μM, 2 hour exposure",20%
same,effect on y+ system,"y^+ transporter; 1 μM DPTA-NONOate (2 μM NO), 15 and 30 min",no significant effect
same,inhibition of L-arginine transport,"y^+ transporter; 1 μM DPTA-NONOate (2 μM NO), 1 hour exposure",22%
same,inhibition of L-arginine transport,"y^+ transporter; 1 μM DPTA-NONOate (2 μM NO), 2 hour exposure",24%
same,inhibition of L-arginine transport,"y^+ transporter; 1 μM DPTA-NONOate (2 μM NO), 4 hour exposure",29%
same,maximum inhibition of y+ transport,"y^+ transporter; 1 μM, 2 hour exposure",24%
same,maximum inhibition of y+ transport,"y^+ transporter; 10 μM, 2 hour exposure",44%
CC[C@H](C)C(=O)O[C@H]1C[C@H](O)C=C2C=C[C@H](C)[C@H](CC[C@@H](O)C[C@@H](O)CC(=O)O)[C@H]21 [pravastatin],increment in NO response to the 10^−5 M concentration,"[3]; pravastatin 10^−5 M, larger than that of acetylcholine",~3 X
N=C(N)NCCC[C@H](N)C(=O)O [L-arginine],accentuation of NO responses to ACH,[1]; supplemental L-arginine,72%
same,accentuation of NO responses to DOX,[1]; supplemental L-arginine 5×10^−4 M,65%
same,inhibition of O2*— production induced by A-23187,[2],60%
same,reduction of O2*— induced by SP,[2],51%
same,prevention of basal production of O2*—,[2],not
same,acetylcholine-elicited production of NO,[3]; L-NAME buffer replaced with buffer containing L-arginine 10^−3 M,returned to control levels
same,NO production in response to pravastatin,[3]; subsequent perfusion with buffer containing L-arginine 10^−3 M,return in NO production to a level above the amount induced by the Pravastatin in control (basis) buffer
"CC(=O)N[C@@H](C(=O)O)C(C)(C)SN=O (racemic) [SNAP, s-nitroso-acetyl-penicillamin]",increase of activity of the y+ transporter,"y^+ transporter; 200 μM SNAP (0.4 μM NO), ten minutes of exposure",37%
same,elevation of activity of the y+ transporter,"y^+ transporter; 200 μM SNAP, 30 minute exposure",not seen
same,reduction of uptake of [3H]-LA,"y^+ transporter; 200 μM SNAP, 1 hour",22%
same,reduction of uptake of [3H]-LA,"y^+ transporter; 200 μM SNAP, 2 hour exposure",46%
same,reduction of uptake of [3H]-LA,"y^+ transporter; 200 μM SNAP, 3 hour exposure",45%
same,reduction of uptake of [3H]-LA,"y^+ transporter; 200 μM SNAP, 5 hour exposure",36%
CC(=O)OCC[N+](C)(C)C [acetylcholine],increase of [3H]-LA uptake,y^+ transporter; 2 minute exposure,22%
same,increase of [3H]-LA uptake,y^+ transporter; 15 minute (maximum),27%
same,increase of [3H]-LA uptake,y^+ transporter; 30 minutes,16%
same,increase of [3H]-LA uptake,y^+ transporter; 60 minutes,15.5%
substance P [SP],increase of y+ transport of L-arginine,y^+ transporter; 15-minutes exposure,24%
same,increase of y+ transport of L-arginine,y^+ transporter; 30 minutes,24%
same,increase of y+ transport of L-arginine,y^+ transporter; 60 minutes,21%
same,increase of y+ transporter activity from control,y^+ transporter; 2 hour exposure,34%
same,increase of y+ transporter activity from control,y^+ transporter; 3 hour exposure,27%
same,increase of y+ transporter activity from control,y^+ transporter; 5 hour exposure,21%
same,increase of O2*— production above basal levels,[2],3.5 fold
